This is an account of results in publication PMC6022977, “Specificity of Induction of Glycopeptide Antibiotic Resistance in the Producing Actinomycetes” (Antibiotics, 2018).

Converted amounts (≈) assume the structure as drawn. Read-outs that look alike come from different tables or passages of the source. Positions of bridges follow the written chain, without caps; N, C: chain ends. Non-standard residues stand in square brackets, D forms with d. Residues, ends and D or L forms follow the SMILES beside them. *: point of attachment. Ileψ(thiazoline)Cys = CC[C@H](C)[C@H](N)C1=N[C@H](C(=O)*)CS1; dOrn = NCCC[C@@H](N)C(=O)O

One test deals with N. gerenzanensis. The conditions noted are these: for MIC, non-induced: Nonomuraea gerenzanensis non-induced.
Another test concerns A. teichomyceticus. The note with it: for MIC, teicoplanin-induced: Actinoplanes teichomyceticus + 10 µg/ml teicoplanin; for MIC, non-induced: Actinoplanes teichomyceticus non-induced.
In a further test the test system is S. coelicolor ∆vanRS. Put plainly: MIC on solid media, S. coelicolor ∆vanRS. In kind it is cell-based, Streptomyces coelicolor. The conditions noted are these: MS agar plates, 10^7 CFU sonicated hyphae, 28 °C, 10 days, average of three independent experiments.
A further test concerns N. gerenzanensis pST30. The experiment in a line: MIC on solid media, N. gerenzanensis pST30. It is filed as cell-based, Nonomuraea gerenzanensis. The note with it: N. gerenzanensis pST30 (vanRSHAX cluster from A. teichomyceticus); V0.1 agar plates, 28 °C, 10 days; average of three independent experiments.
Test [1] relates to VanY activity in N. gerenzanensis pST30. It is filed as cell-based, Nonomuraea gerenzanensis. The note with it: for Effect on VanY activity (membrane extracts): N. gerenzanensis pST30 grown with subinhibitory concentrations of GPAs added at inoculum.
Method: To determine the correlation between the antimicrobial activity of the GPAs and their ability to induce the van resistance system in actinomycetes, we followed the enzyme activities corresponding to either VanX or VanY peptidases in cells growing in liquid culture in the presence or absence of subinhibitory concentrations of GPAs (Figure 1 and Figure 2). The D,D-dipeptidase activity of VanX (Figure 1) and the D,D-carboxypeptidase activity of VanY (Figure 2) were measured by determining the amount of D-Ala released from the hydrolysis of the D-Ala-D-Ala dipeptide and of the Nε-acetyl-L-Lys-D-Ala-D-Ala tripeptide, respectively. D-Ala release was measured by using a D-amino acid oxidase coupled to a peroxidase [25, 31].
Figure 2 VanY activity in N. gerenzanensis and N. gerenzanensis pST30 grown in the absence (dotted line) or in the presence (continuous line) of subinhibitory concentrations of GPAs added at the moment of inoculum (see material and methods). VanY-specific activity is defined as the number of nanomoles of D-Ala released by the hydrolysis of Nε-acetyl-L-Lys-D-Ala-D-Ala tripeptide at 37 °C per minute per milligram of protein contained in membrane extracts. […] The values represent the averages from three independent experiments, with a standard deviation of <5%.
(§1) S. coelicolor A3(2), its ΔvanRS mutant, A. teichomyceticus ATCC 31121, N. gerenzanensis ATCC 39727, and N. gerenzanensis pST30 were grown as described above. […] Antibiotics were added to the cultures at the moment of inoculation using concentrations calculated as the half-point of MICs (see below and Table 1), except for vancomycin (10 µg/mL) in S. coelicolor A3(2), as reported by Kwun et al. [10].
Cells were harvested by centrifugation at 3600× g for 20 min at 4 °C, and then they were suspended in 2 mL of 0.9% (w/v) NaCl per gram of cells (wet weight). All of the following manipulations were conducted at 0 to 4 °C. The mycelium was fragmented by sonication with a Sonics Vibracell VCX 130. […]
In test [2] the test system is VanX activity in N. gerenzanensis pST30. It is filed as cell-based, Nonomuraea gerenzanensis. The note with it: for Growth time within which VanX activity responds to the inducer: N. gerenzanensis pST30, subinhibitory concentrations (vancomycin 10, teicoplanin 1.75, A40926 10 µg/mL), teicoplanin to less extent; for Effect on VanX activity (cytoplasmic fraction): N. gerenzanensis pST30 grown with 10 µg/mL vancomycin, 1.75 µg/mL teicoplanin, 10 µg/mL A40926.
Method: (§2) The D,D-dipeptidase activity of VanX (Figure 1) and the D,D-carboxypeptidase activity of VanY (Figure 2) were measured by determining the amount of D-Ala released from the hydrolysis of the D-Ala-D-Ala dipeptide and of the Nε-acetyl-L-Lys-D-Ala-D-Ala tripeptide, respectively. D-Ala release was measured by using a D-amino acid oxidase coupled to a peroxidase [25, 31].
(§3) VanX-specific activity is defined as the number of nanomoles of D-Ala released by the hydrolysis of D-Ala-D-Ala dipeptide at 37 °C per minute per milligram of protein contained in cytoplasmic fractions.
as §1
Cells were harvested by centrifugation at 3600× g for 20 min at 4 °C, and then they were suspended in 2 mL of 0.9% (w/v) NaCl per gram of cells (wet weight). All of the following manipulations were conducted at 0 to 4 °C. The mycelium was fragmented by sonication with a Sonics Vibracell VCX 130. Sonication was carried out for 5 min on ice, with cycles of 30 s with an amplitude of 90% (90% of 60 Hz), with breaks of 10 s. The samples were then centrifuged at 39,000× g for 15 min, and the supernatants (cytoplasmic fractions) were collected. An alkaline extraction of the pellets (cell debris and membrane fractions) was carried out by adapting a protocol developed previously for extracting membrane-bound proteins [25, 36]. The sedimented pellets were resuspended in ice-cold distilled water containing proteinase inhibitors (0.19 mg/mL phenylmethanesulfonyl fluoride and 0.7 µg/mL pepstatin, both purchased from Sigma-Aldrich), and then, immediately before centrifugation (28,000× g for 15 min at 4 °C), the pH was adjusted to 12 by adding an appropriate volume of 2.5 N NaOH. Immediately after centrifugation, the supernatants were neutralized to pH 7 by adding 0.5 M sodium acetate (pH 5.4). Enzymatic activities in the supernatant (cytoplasmic fractions) and in the resuspended insoluble fractions (membranes) were assayed as reported previously [36] by measuring the release of D-Ala from commercially available dipeptide (D-Ala-D-Ala, 10 mM; Sigma-Aldrich) and tripeptide (Nε-acetyl-L-Lys-D-Ala-D-Ala, 10 mM; Sigma-Aldrich).

Test [3] concerns VanX activity in S. coelicolor. The note with it: vancomycin 10 µg/mL.
Method: as §2, §3, §1
Cells were harvested by centrifugation at 3600× g for 20 min at 4 °C, and then they were suspended in 2 mL of 0.9% (w/v) NaCl per gram of cells (wet weight). All of the following manipulations were conducted at 0 to 4 °C. The mycelium was fragmented by sonication with a Sonics Vibracell VCX 130. Sonication was carried out for 5 min on ice, with cycles of 30 s with an amplitude of 90% (90% of 60 Hz), with breaks of 10 s. […]
[4] abbreviates: N. gerenzanensis, V0.1 agar plates, 10^7 CFU sonicated hyphae, 28 °C, 10 days, average of three independent experiments.
The mark [5] stands for this setting: S. coelicolor, MS agar plates, 10^7 CFU sonicated hyphae, 28 °C, 10 days, average of three independent experiments.
[6] abbreviates: A. teichomyceticus, V0.1 agar plates, 10^7 CFU sonicated hyphae, 28 °C, 10 days, average of three independent experiments.
[7] abbreviates: Nonomuraea gerenzanensis + 2 µg/ml A40926, after 48h of growth, average of three independent experiments.
[8] abbreviates: Nonomuraea gerenzanensis + 2 µg/ml A40926, after 72h of growth, average of three independent experiments.
Where [9] appears, read: after 48h of growth, average of three independent experiments.
Where [10] appears, read: after 72h of growth, average of three independent experiments.

Method for A. teichomyceticus: (§4) MICs were measured on solid media, since the standard broth dilution method used in unicellular bacteria to determine MICs by turbidity is compromised in mycelial actinomycetes by the formation of multicellular aggregates and by the coexistence of cells in different physiological states (e.g., vegetative mycelium, aerial mycelium, and spores).
(§5) Cryovials of WCBs were thawed at room temperature and used to inoculate a VSP medium for Nonomuraea spp. and Actinoplanes spp. or YEME for Streptomyces spp. in the presence or the absence of GPAs. The strains were grown to exponential phase (approximately 72 h) at 28 °C with shaking. The mycelium was harvested by centrifugation, suspended in 0.9% (w/v) NaCl, and fragmented by sonication with a Vibracell Albra sonicator 400 W [26]. […] The plates were dried and then incubated at 28 °C. MIC values were determined as the lowest antibiotic concentrations that inhibited visible growth after 10 days of incubation.
Method for S. coelicolor ∆vanRS: as §4, §5

Regarding `CC[C@H](C)[C@H](N)C1=N[C@H](C(=O)N[C@@H](CC(C)C)C(=O)N[C@H](CCC(=O)O)C(=O)N[C@H](C(=O)N[C@H]2CCCCNC(=O)[C@H](CC(N)=O)NC(=O)[C@@H](CC(=O)O)NC(=O)[C@H](Cc3cnc[nH]3)NC(=O)[C@@H](Cc3ccccc3)NC(=O)[C@H]([C@@H](C)CC)NC(=O)[C@@H](CCCN)NC2=O)[C@@H](C)CC)CS1` [Bacitracin] ({Ileψ(thiazoline)Cys}-L[dE]IK[dOrn]I[dF]H[dD]N; lactam 4-C (inferred); N-terminus assumed), the “Minimal inhibitory concentration (MIC)” value was 20 ± 1.3 µg/mL (≈ 14.1 µM) in the test with N. gerenzanensis (72 h); 0.9 ± 0.05 µg/mL (≈ 0.633 µM) in the test with S. coelicolor (72 h); 20 ± 1.15 µg/mL (≈ 14.1 µM) in the test on A. teichomyceticus (72 h); 0.9 ± 0.035 µg/mL (≈ 0.633 µM) with S. coelicolor ∆vanRS; 20 ± 1.2 µg/mL (≈ 14.1 µM) with N. gerenzanensis pST30.

As to Ramoplanin, the “Minimal inhibitory concentration (MIC)” value is given as 20 ± 1.2 µg/mL with N. gerenzanensis (setting [4]); 0.9 ± 0.045 µg/mL in the test with S. coelicolor (setting [5]); 20 ± 1 µg/mL in the test on A. teichomyceticus (setting [6]); 0.9 ± 0.025 µg/mL in the test with S. coelicolor ∆vanRS; 20 ± 1.1 µg/mL with N. gerenzanensis pST30.

With Teicoplanin, in test [1], the “Effect on VanY activity (membrane extracts)” value is “comparable to the basal level”. Moreover, the “Minimal inhibitory concentration (MIC)” value is on record as 0.9 ± 0.01 µg/mL in the test on N. gerenzanensis (setting [4]); 1.5 ± 0.025 µg/mL in the test on S. coelicolor (setting [5]); 20 ± 1.5 µg/mL with A. teichomyceticus (setting [6]); 1.5 ± 0.02 µg/mL with S. coelicolor ∆vanRS; 2.75 ± 0.15 µg/mL in the test with N. gerenzanensis pST30. For the same molecule, the “MIC, A40926-induced” value with N. gerenzanensis (setting [7]) was 1.2±0.03 g/ml; with N. gerenzanensis (setting [8]), 1.2±0.02 g/ml. Also, the “MIC, non-induced” value against N. gerenzanensis (setting [9]) is recorded as 0.9±0.01 g/ml; with N. gerenzanensis (setting [10]), 0.9±0.015 g/ml; against A. teichomyceticus (setting [9]), 20±1 g/ml; against A. teichomyceticus (setting [10]) it was 20±0.9 g/ml. Also, the “Growth time within which VanX activity responds to the inducer” value in test [2] is on record as no more than 48 h. The “Effect on VanX activity (cytoplasmic fraction)” value in test [2] is “induced”. In addition, the “MIC, teicoplanin-induced” value in the test with A. teichomyceticus (setting [10]) was determined as 20±0.85 g/ml.

For `CN[C@H](CC(C)C)C(=O)N[C@H]1C(=O)N[C@@H](CC(N)=O)C(=O)N[C@H]2C(=O)N[C@H]3C(=O)N[C@H](C(=O)N[C@H](C(=O)O)c4cc(O)cc(O)c4-c4cc3ccc4O)[C@H](O)c3ccc(c(Cl)c3)Oc3cc2cc(c3O[C@@H]2O[C@H](CO)[C@@H](O)[C@H](O)[C@H]2O[C@H]2C[C@](C)(N)[C@H](O)[C@H](C)O2)Oc2ccc(cc2Cl)[C@H]1O` [Vancomycin], the “Effect on VanY activity (membrane extracts)” value in test [1] is “significantly induced”. Also, in test [1] (N. gerenzanensis pST30 induced by vancomycin), the “Growth time at which induced VanY activity reaches its maximum value” is reported as 96 h. In addition, the “Minimal inhibitory concentration (MIC)” value in the test on N. gerenzanensis (setting [4]) was 20 ± 1.6 µg/mL (≈ 13.8 µM); in the test on S. coelicolor (setting [5]), greater than 100 µg/mL; in the test with A. teichomyceticus (setting [6]) it was 90 ± 4.2 µg/mL (≈ 62.1 µM); in the test on S. coelicolor ∆vanRS, 1.25 ± 0.03 µg/mL (≈ 0.863 µM); with N. gerenzanensis pST30, 20 ± 1.05 µg/mL (≈ 13.8 µM). For the same molecule, the MIC, A40926-induced in the test on N. gerenzanensis (setting [7]) is 32 ± 0.9 µg/mL; in the test on N. gerenzanensis (setting [8]), 32 ± 0.8 µg/mL. Also, the MIC, non-induced was found to be 20 ± 0.8 µg/mL (≈ 13.8 µM) against N. gerenzanensis (setting [9]), 20 ± 0.5 µg/mL (≈ 13.8 µM) in the test with N. gerenzanensis (setting [10]), 90 ± 2.5 µg/mL (≈ 62.1 µM) with A. teichomyceticus (setting [9]) and 90 ± 1.6 µg/mL (≈ 62.1 µM) against A. teichomyceticus (setting [10]). Moreover, the “Growth time within which VanX activity responds to the inducer” value in test [2] is recorded as no more than 48 h. Moreover, in test [2], the “Effect on VanX activity (cytoplasmic fraction)” value is “induced”. Besides, in the test with A. teichomyceticus (setting [10]), the MIC, teicoplanin-induced amounted to 90 ± 2.1 µg/mL. Besides, in test [3], the “Change of level of VanX enzyme activity within the first 24 h from the induction” value was “doubled”.
